From paper PMC12284850, “In Silico Design of Antimicrobial Peptides against Carbapenem-Resistant Infections with Enhanced Activity by Nanoformulation” (ACS Applied Bio Materials, 2025)
In brackets after ≈: the same amount, converted by molar mass. Read-outs that look alike come from different tables or passages of the source. Where a SMILES comes first, the peptide text is derived from it. Bridges are numbered along the chain shown (N, C = ends). [ ]: non-standard residue; d: D form. The star is where a group is joined. X1 = CC[C@H](C)CCCCC(=O)*; Dab = NCC[C@H](N)C(=O)O

Tests used:
[1] = tested on: A. baumannii ATCC19606; format: cell-based; details: 37 °C, 18 h
Text: The antimicrobial mechanism of colistin against bacteria has been attributed to the interaction between positively charged colistin and negatively charged outer membrane. Colistin could be displaced by divalent ions, such as calcium ions (Ca^2+) and magnesium (Mg^2+) in a competitively way. Moreover, elevated levels of divalent cations can enhance membrane rigidity, thereby reducing drug penetration and overall efficacy. To investigate the antimicrobial mechanism of T2–02, the competitive assays using divalent calcium ion were conducted. The elevated MICs of colistin were observed by adding Ca^2+ (2 to 32 μg/mL, Table S4).
As previously reported, the MIC values of T2–02 in conjunction with different chemical agents was estimated using the broth microdilution technique. Different concentrations of T2–02 were combined with Ca2+ separately, and the effect of chemical agents on T2–02 were tracked by observing variations in their MIC values. Each solution was added to a 96-well plate at the proper concentration in 100 μL volume. Next, 100 μL of the modified bacterial solution was added to each well. The absorbance was measured after incubation at 37 °C for 0 and 18 h.

[2] = tested on: HK-2 cells; experiment: Cytotoxicity assay (MTT); format: cell-based
Experimental: (§1) We tested the cytotoxicity of several antibiotic compounds, including peptides and nanoparticles, on the human embryonic kidney cell lines HEK-293, HK-2, and […]. The cells were stored in DMEM medium and incubated at 37 °C with 5% CO2 in a humidifying environment. Using the MTT (methylthiazolyldiphenyl-tetrazolium bromide) test, cell viability was evaluated. Following a 5 × 10^3 cell/mL seeding in 96-well plates, the cells were exposed to 100 μL of samples at varying concentrations (12.5–200 μM) during 72 h at 37 °C. Later, each well is loaded with MTT solution (5 mg/mL in PBS) at a volume of 10 μL. The plates were left in the dark for 4 h. After forming formazan crystals due to the action of mitochondrial reductases in living cells, the crystals were dissolved using a solubilizing solution (pH 4.7, 40% dimethylformamide, 2% glacial acetic acid, and 16% sodium dodecyl sulfate) were shaken at 150 rpm and incubated for an hour at 37 °C. Using graphical plot analysis, the IC50 value–the concentration that results in 50% cell death–was obtained by measuring the absorbance of the dissolved formazan at 570 nm. The average of three independent tests, each carried out in triplicate, was used to display the results.

[3] = tested on: human red blood cells (RBCs); experiment: Hemolysis assay; format: cell-based; details: at 256 μg/mL, 2% hematocrit, 1 h, 37 °C, absorbance 540 nm, triplicate
Experimental: 5 . Hemolysis profiles of colistin, free T2–02, and T2–02-loaded liposomes. (A) Colistin, (B) free T2–02 peptide, and (C) T2–02-loaded liposomes (T2–02 Lipo) were incubated with human red blood cells (RBCs) at various concentrations (0–256 μg/mL) for 1 hour at 37 °C.
The hemolytic potential of colistin, T2–02, and T2–02 Lipo were assessed using a modified erythrocyte lysis assay. Briefly, fresh erythrocytes were washed twice with phosphate-buffered saline (PBS) and resuspended in 5% glucose solution to prepare a 2% hematocrit suspension. Aliquots (100 μL) of each test compound at varying concentrations were incubated with the erythrocyte suspension at 37 °C with gentle agitation (120 rpm) for 1 h. After incubation, samples were centrifuged at 700 × g for 10 min, and the supernatant was transferred to a 96-well microplate. The release of hemoglobin was quantified by measuring the absorbance at 540 nm. The percentage of hemolysis was calculated as follows: Hemolysis (%) = (OD of test sample – OD of negative control)/(OD of positive control-OD of negative control) × 100%. Each experiment was performed in triplicate, and data were expressed as mean ± standard deviation (SD).

[4] = tested on: E. coil ATCC25922; format: cell-based, E. coli
Experimental: (§2) The broth microdilution procedure involves preparing CAMHB broth, a bacterial suspension adjusted to McFarland 0.5 (1.5 × 10^8 CFU/mL) and diluted 200×, and a drug solution at 2× the final target concentration. To achieve a 400× final bacterial dilution, add 100 μL of the drug at different doses to a 96-well plate, then 100 μL of the diluted bacterial culture. Measure the initial absorbance (0 h), incubate at 37 °C for 16–18 h, and measure the final absorbance. With no change in absorbance, the MIC signifies the absence of bacterial growth.

[5] = tested on: A. baumannii ATCC BAA-747; format: cell-based
Experimental: as §2

[6] = tested on: A. baumannii ATCC19606; format: cell-based
Experimental: as §2

[7] = tested on: E. faecalis ATCC 29212; format: cell-based
Experimental: as §2

[8] = tested on: K. pneumoniae ATCC BAA-1705; format: cell-based
Experimental: as §2

[9] = tested on: K. pneumoniae ATCCC700603; format: cell-based
Experimental: as §2

[10] = tested on: P. aeruginosa ATCC27853; format: cell-based
Experimental: as §2

[11] = tested on: S. aureus ATCC25923; format: cell-based
Experimental: as §2

[12] = tested on: S. aureus ATCC29213; format: cell-based
Experimental: as §2

[13] = tested on: S. aureus ATCC33592; format: cell-based
Experimental: as §2

[14] = tested on: S. aureus ATCC700698; format: cell-based
Experimental: as §2

[15] = tested on: HEK293; format: cell-based, human; details: 72 h
Experimental: as §1

Molecule | MIC [4] | MIC [5] | MIC [6] | MIC [7] | MIC [8] | MIC [9] | MIC [10] | MIC [11] | MIC [12] | MIC [13] | MIC [14] | Antibacterial activity (MIC), 20 mM CaCl2 ([1]; in the presence of 20 mM CaCl2, broth microdilution) | Antibacterial activity (MIC), Control ([1]; without CaCl2, broth microdilution) | Cytotoxicity HK-2 related to PMB ([2]; ratio of HK-2 IC50 to that of polymyxin B) | Hemolysis [3] | Cytotoxicity HK-2 related to PMB [2] | IC50 HEK293 [15]
CC[C@H](C)CCCCC(=O)N[C@@H](CCN)C(=O)N[C@H](C(=O)N[C@@H](CCN)C(=O)N[C@H]1CCNC(=O)[C@H]([C@@H](C)O)NC(=O)[C@H](CCN)NC(=O)[C@H](CCN)NC(=O)[C@H](CC(C)C)NC(=O)[C@@H](CC(C)C)NC(=O)[C@H](CCN)NC1=O)[C@@H](C)O [Colistin] (X1-[Dab]T[Dab][Dab][Dab][dL]L[Dab][Dab]T; lactam 4-C (inferred); N-terminus assumed) | – | – | – | – | – | – | – | – | – | – | – | 32 µg/mL | 2 µg/mL | 2.6 | ~45% | – | –
SPR 206 [reference compound] | – | – | – | – | – | – | – | – | – | – | – | – | – | – | – | 11.6 | –
CC[C@H](C)[C@H](NC(=O)[C@H](CC(=O)O)NC(=O)[C@H](CCCCN)NC(=O)[C@H](Cc1c[nH]c2ccccc12)NC(=O)[C@H](CC(C)C)NC(=O)[C@H](C)N)C(=O)N[C@@H](CC(C)C)C(=O)N[C@@H](CCCCN)C(=O)N[C@@H](CC(N)=O)C(=O)N[C@@H](C)C(=O)NCC(=O)N[C@@H](CCCCN)C(=O)N[C@@H](C)C(=O)N[C@@H](C)C(=O)N[C@@H](CC(C)C)C(=O)N[C@@H](CC(N)=O)C(=O)N[C@@H](CCC(=O)O)C(=O)N[C@H](C(=O)N[C@@H](CC(N)=O)C(=O)N[C@@H](CCC(N)=O)C(=O)N[C@@H](CC(C)C)C(=O)N[C@H](C(=O)N[C@@H](CC(N)=O)C(=O)NCC(=O)N[C@@H](CCCNC(=N)N)C(=O)NCC(=O)N[C@@H](CC(C)C)C(=O)N[C@@H](CCCCN)C(=O)N[C@@H](CCCCN)C(=O)O)C(C)C)[C@@H](C)CC [seq ID-1, reference compound] (H-ALWKDILKNAGKAALNEINQLVNGRGLKK-OH) | 64 µg/mL (≈ 20.1 µM) | 32 µg/mL (≈ 10.1 µM) | 32 µg/mL (≈ 10.1 µM) | 128 µg/mL (≈ 40.3 µM) | 128 µg/mL (≈ 40.3 µM) | 128 µg/mL (≈ 40.3 µM) | 32 µg/mL (≈ 10.1 µM) | 128 µg/mL (≈ 40.3 µM) | >512 µg/mL | >512 µg/mL | >512 µg/mL | – | – | – | – | – | –

Second part, led by results:

MIC [4] | MIC [5] | MIC [6] | MIC [7] | MIC [8] | MIC [9] | MIC [10] | MIC [11] | MIC [12] | MIC [13] | MIC [14] | Molecule | Antibacterial activity (MIC), 20 mM CaCl2 ([1]; in the presence of 20 mM CaCl2, broth microdilution) | Antibacterial activity (MIC), Control ([1]; without CaCl2, broth microdilution) | Cytotoxicity HK-2 related to PMB ([2]; ratio of HK-2 IC50 to that of polymyxin B) | Hemolysis [3] | Cytotoxicity HK-2 related to PMB [2] | IC50 HEK293 [15]
>512 µg/mL | 64 µg/mL (≈ 25.7 µM) | 64 µg/mL (≈ 25.7 µM) | >512 µg/mL | >512 µg/mL | >512 µg/mL | 64 µg/mL (≈ 25.7 µM) | >512 µg/mL | 512 µg/mL (≈ 205 µM) | >512 µg/mL | >512 µg/mL | CC[C@H](C)[C@H](NC(=O)[C@H](CCC(=O)O)NC(=O)[C@H](CC(N)=O)NC(=O)[C@H](CC(C)C)NC(=O)[C@H](C)NC(=O)[C@H](C)NC(=O)[C@H](CCCCN)NC(=O)CNC(=O)[C@H](CCCNC(=N)N)NC(=O)[C@H](CCCNC(=N)N)NC(=O)[C@H](CCCCN)NC(=O)[C@H](CC(C)C)NC(=O)[C@H](CC(C)C)NC(=O)[C@H](CCCNC(=N)N)NC(=O)[C@H](CCCCN)NC(=O)[C@H](Cc1c[nH]c2ccccc12)NC(=O)[C@H](CC(C)C)NC(=O)[C@H](C)N)C(=O)N[C@@H](CC(N)=O)C(=O)N[C@@H](CCC(N)=O)C(=O)N[C@@H](CC(C)C)C(=O)O [T2–01] (H-ALWKRLLKRRGKAALNEINQL-OH) | – | – | – | – | – | –
>1024 µg/mL | 8 µg/mL (≈ 3.44 µM) | 8 µg/mL (≈ 3.44 µM) | 1024 µg/mL (≈ 441 µM) | >1024 µg/mL | >512 µg/mL | 8 µg/mL (≈ 3.44 µM) | 1024 µg/mL (≈ 441 µM) | >512 µg/mL | >512 µg/mL | >512 µg/mL | CC[C@H](C)[C@H](NC(=O)[C@H](CCC(=O)O)NC(=O)[C@H](CC(N)=O)NC(=O)[C@H](CC(C)C)NC(=O)[C@H](C)NC(=O)[C@H](C)NC(=O)[C@H](CCCCN)NC(=O)CNC(=O)[C@H](C)NC(=O)[C@H](CC(N)=O)NC(=O)[C@H](CCCCN)NC(=O)[C@H](CC(C)C)NC(=O)[C@@H](NC(=O)[C@H](CC(=O)O)NC(=O)[C@H](CCCCN)NC(=O)[C@H](Cc1c[nH]c2ccccc12)NC(=O)[C@H](CC(C)C)NC(=O)[C@H](C)N)[C@@H](C)CC)C(=O)N[C@@H](CC(N)=O)C(=O)N[C@@H](CCC(N)=O)C(=O)N[C@@H](CC(C)C)C(=O)O [T2] (H-ALWKDILKNAGKAALNEINQL-OH) | – | – | – | – | – | >1024 µg/mL
